# pIC50, pKi: −log10 of the molar value. Where two headings read alike, the source gives them in different places.
# Legend:
# Enzyme [1] = assay: Secondary pharmacology panel, target #15
# Protocol: (§2) For enzyme and kinase assays, the results were expressed as a percent inhibition of control-specific activity obtained in the presence of the test compound. The IC50 values (concentration causing a half-maximal inhibition of control-specific activity) and Hill coefficients (nH) were determined by nonlinear regression analysis of the inhibition/concentration–response curves using Hill equation curve fitting as described earlier[37].
# (§3) For assessment of activity against these targets, compounds were tested in an 8-point
# (§4) concentration response covering half-log units up to a top test concentration of 100 µM, and
# (§5) an IC50 or Ki determined using either radio ligand binding assays or enzyme activity assays.
# GPCR [2] = assay: Secondary pharmacology panel, target #8
# Protocol: (§6) An in vitro pharmacological profiling panel was specifically designed for the detection of potential high- risk clinical adverse drug reactions. […] For enzyme and kinase assays, the results were expressed as a percent inhibition of control-specific activity obtained in the presence of the test compound. The IC50 values (concentration causing a half-maximal inhibition of control-specific activity) and Hill coefficients (nH) were determined by nonlinear regression analysis of the inhibition/concentration–response curves using Hill equation curve fitting as described earlier[37].
# as §3, §4, §5
# GPCR [3] = assay: Secondary pharmacology panel, target #9
# Protocol: as §6, §3, §4, §5
# Ion channel [4] = assay: Secondary pharmacology panel, target #5
# Protocol: as §6, §3, §4, §5
# [5] = tested on: asexual blood stage of Pf; assay: Pf asexual blood stage potency (Pf IC50); type: cell-based, Plasmodium falciparum; conditions: for pIC50: Plasmodium falciparum
# Text: The TAPs series emerged from a high-throughput screen (HTS) of 500,000 compounds from the AstraZeneca corporate library against the asexual blood stage of Pf using a high-content image-based approach. The procedure for synthesis of compounds 1-6, 10, 11 using a scheme similar to Fig. 1 is provided in Supplementary Note 1. The initial hit provided multiple diversification points for a robust lead optimization campaign. […] Compounds with 2-pyridyl modification at the 2-amino position of pyrimidine core improved potency and solubility at the cost of potent activity against hERG and acetylcholine esterase (AChE; compounds 3-6; Table 1). […] The observed hERG and AChE selectivity improvement with 7 could be attributed to the polar nature of the pyrazole group and its role in reducing the pKa of the core pyrimidine ring. […] To assess the potential for cross-resistance, representative TAPs were screened against a panel of clinical isolates and in vitro-generated mutant strains displaying varying mechanisms of resistance to antimalarial agents currently in use and under development, respectively, (Supplementary Tables 1–3).
# α1A adrenoceptor = biological target: T1, α1A adrenoceptor (Homo sapiens, UniProt P35348); assay: α1A adrenoceptor radioligand binding (CEREP)
# T1 construct: purchased CEREP, France (external assay service) 2338
# T1 sequence (P35348 1-466): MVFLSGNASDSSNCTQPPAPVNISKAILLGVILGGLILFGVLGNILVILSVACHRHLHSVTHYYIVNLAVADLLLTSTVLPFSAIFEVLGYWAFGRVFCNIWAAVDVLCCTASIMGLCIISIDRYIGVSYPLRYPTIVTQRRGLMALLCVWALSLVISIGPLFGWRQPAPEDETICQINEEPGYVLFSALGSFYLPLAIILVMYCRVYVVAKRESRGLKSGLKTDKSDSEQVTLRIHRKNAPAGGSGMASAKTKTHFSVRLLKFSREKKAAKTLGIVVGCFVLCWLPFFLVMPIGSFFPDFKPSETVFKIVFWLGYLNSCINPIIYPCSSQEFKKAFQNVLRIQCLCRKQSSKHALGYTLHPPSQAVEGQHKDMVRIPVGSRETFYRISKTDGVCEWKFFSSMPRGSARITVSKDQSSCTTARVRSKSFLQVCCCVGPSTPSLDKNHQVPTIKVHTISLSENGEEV
# Protocol: (§1) An in vitro pharmacological profiling panel was specifically designed for the detection of potential high- risk clinical adverse drug reactions. The panel comprised of 26 diverse targets (6 enzymes, 2 transporters, 9 G-protein-coupled receptors (GPCRs), 5 ion channels along with hERG, M2, alpha1A and AchE) and was conduced externally by CEREP, France […]. […] Detailed methodology for in vitro pharmacological profiling assays provided by CEREP can be found at http://www.cerep.fr, with specific reference to the AChE (cat. no. 0363), Muscarinic M1 receptor (cat. no. 0091) and Adrenergic α1A receptor (cat. no. 2338) assays. For enzyme and kinase assays, the results were expressed as a percent inhibition of control-specific activity obtained in the presence of the test compound. The IC50 values (concentration causing a half-maximal inhibition of control-specific activity) and Hill coefficients (nH) were determined by nonlinear regression analysis of the inhibition/concentration–response curves using Hill equation curve fitting as described earlier.
# For radioligand binding assays, the results are expressed as % inhibition of control-specific binding obtained in the presence of the test compounds. The IC50 values (concentration causing a half-maximal inhibition of control-specific binding) and Hill coefficients (nH) were determined by nonlinear regression analysis of the competition curves generated with mean replicate values using Hill equation curve fitting. The inhibition constants (Ki) were subsequently calculated by applying the Cheng Prusoff equation[38].
# Enzyme [6] = assay: Secondary pharmacology panel, target #11
# Protocol: as §2, §3, §4, §5
# Enzyme [7] = assay: Secondary pharmacology panel, target #23
# Protocol: as §2, §3, §4, §5
# [8] = biological target: T2, acetylcholine esterase (AChE) (Homo sapiens, UniProt P22303); assay: AChE enzyme activity assay (CEREP); type: biochemical
# T2 construct: purchased CEREP, France (external assay service) 0363
# Protocol: as §1
# GPCR [9] = assay: Secondary pharmacology panel, target #26
# Protocol: as §6, §3, §4, §5
# GPCR [10] = assay: Secondary pharmacology panel, target #22
# Protocol: as §6, §3, §4, §5
# Transporter [11] = assay: Secondary pharmacology panel, target #14
# Protocol: as §6, §3, §4, §5
# GPCR [12] = assay: Secondary pharmacology panel, target #10
# Protocol: as §6, §3, §4, §5
# GPCR [13] = assay: Secondary pharmacology panel, target #12
# Protocol: as §6, §3, §4, §5
# Ion channel [14] = assay: Secondary pharmacology panel, target #21
# Protocol: as §6, §3, §4, §5
# hERG = biological target: T3, hERG (Homo sapiens, UniProt Q12809); assay: electrophysiology-based hERG assay using IonWorks HT (CHO cells); type: cell-based
# T3 construct: expressed in transfected cells; host or cells: CHO cells
# Protocol: hERG IC50 was determined in an electrophysiology-based hERG assay using IonWorks HT (CHO cells) as described earlier.
# Enzyme [15] = assay: Secondary pharmacology panel, target #19
# Protocol: as §2, §3, §4, §5
# Transporter [16] = assay: Secondary pharmacology panel, target #7
# Protocol: as §6, §3, §4, §5
# Enzyme [17] = assay: Secondary pharmacology panel, target #24
# Protocol: as §2, §3, §4, §5
# GPCR [18] = assay: Secondary pharmacology panel, target #6
# Protocol: as §6, §3, §4, §5
# [19] = Plasma protein binding, human; conditions: for fraction unbound: human, plasma
# GPCR 9 = assay: Secondary pharmacology panel, target #20
# Protocol: as §2
# targets (8 enzymes, 5 ion channels, 10 GPCRs and 2 transporters) and hERG.
# as §3, §4, §5
# Enzyme [20] = assay: Secondary pharmacology panel, target #25
# Protocol: as §2, §3, §4, §5
# [21] = Binding Ki / Enzyme IC50, Target #3, AChE
# [22] = Target #18, hERG, read-out: Binding Ki / Enzyme IC50
# T3 sequence (Q12809 whole entry): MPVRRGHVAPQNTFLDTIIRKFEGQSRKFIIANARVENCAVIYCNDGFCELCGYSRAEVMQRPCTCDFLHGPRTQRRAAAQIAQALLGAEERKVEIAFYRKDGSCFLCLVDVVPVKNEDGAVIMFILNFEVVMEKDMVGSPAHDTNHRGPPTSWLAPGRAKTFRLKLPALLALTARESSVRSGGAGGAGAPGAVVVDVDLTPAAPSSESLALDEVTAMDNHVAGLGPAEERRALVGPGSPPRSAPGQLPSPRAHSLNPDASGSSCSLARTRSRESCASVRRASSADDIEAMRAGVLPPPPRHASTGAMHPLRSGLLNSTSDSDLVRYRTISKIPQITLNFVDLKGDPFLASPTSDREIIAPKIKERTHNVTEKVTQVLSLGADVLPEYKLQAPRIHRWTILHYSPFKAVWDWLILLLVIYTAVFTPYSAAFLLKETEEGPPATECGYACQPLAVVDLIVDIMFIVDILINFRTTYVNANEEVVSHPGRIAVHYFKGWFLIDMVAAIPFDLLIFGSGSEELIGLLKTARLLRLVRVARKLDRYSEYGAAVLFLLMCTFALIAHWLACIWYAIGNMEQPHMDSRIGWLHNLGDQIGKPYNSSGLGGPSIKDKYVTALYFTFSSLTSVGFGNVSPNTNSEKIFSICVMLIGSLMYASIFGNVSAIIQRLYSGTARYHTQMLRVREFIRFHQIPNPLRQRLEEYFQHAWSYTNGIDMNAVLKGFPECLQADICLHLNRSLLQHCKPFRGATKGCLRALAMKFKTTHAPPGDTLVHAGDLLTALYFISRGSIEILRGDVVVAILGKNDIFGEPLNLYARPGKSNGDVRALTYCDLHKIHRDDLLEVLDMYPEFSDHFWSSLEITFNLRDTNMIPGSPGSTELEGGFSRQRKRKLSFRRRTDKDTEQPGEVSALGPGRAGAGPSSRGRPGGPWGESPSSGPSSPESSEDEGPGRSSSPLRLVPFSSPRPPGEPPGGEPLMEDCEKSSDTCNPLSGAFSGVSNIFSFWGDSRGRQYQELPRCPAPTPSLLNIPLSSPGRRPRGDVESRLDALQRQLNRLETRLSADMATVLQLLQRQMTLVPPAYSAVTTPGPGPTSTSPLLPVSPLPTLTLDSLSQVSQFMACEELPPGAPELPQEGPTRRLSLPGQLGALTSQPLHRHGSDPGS
# T2 sequence (P22303 32-614): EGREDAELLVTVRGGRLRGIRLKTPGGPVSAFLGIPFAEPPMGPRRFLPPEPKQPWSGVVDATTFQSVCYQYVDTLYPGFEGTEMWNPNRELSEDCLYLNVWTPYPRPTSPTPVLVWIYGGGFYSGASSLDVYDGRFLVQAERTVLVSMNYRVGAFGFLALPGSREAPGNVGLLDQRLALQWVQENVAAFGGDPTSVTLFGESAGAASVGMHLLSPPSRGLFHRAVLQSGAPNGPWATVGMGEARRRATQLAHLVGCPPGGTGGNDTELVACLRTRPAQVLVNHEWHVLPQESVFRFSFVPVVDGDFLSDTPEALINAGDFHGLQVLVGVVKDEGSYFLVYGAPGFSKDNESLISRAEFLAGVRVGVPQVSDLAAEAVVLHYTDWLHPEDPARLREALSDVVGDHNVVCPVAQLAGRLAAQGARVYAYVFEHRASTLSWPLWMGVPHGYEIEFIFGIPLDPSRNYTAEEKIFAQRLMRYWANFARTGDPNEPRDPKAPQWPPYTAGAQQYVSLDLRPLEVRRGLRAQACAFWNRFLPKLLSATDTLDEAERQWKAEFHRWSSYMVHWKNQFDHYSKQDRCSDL
SMILES,Binding Ki / Enzyme IC50 (Enzyme [1]),Binding Ki / Enzyme IC50 (GPCR [2]),Binding Ki / Enzyme IC50 (GPCR [3]),Binding Ki / Enzyme IC50 (Ion channel [4]),pIC50 [5],pIC50 (α1A adrenoceptor),pKi (α1A adrenoceptor),Binding Ki / Enzyme IC50 (Enzyme [6]),Binding Ki / Enzyme IC50 (Enzyme [7]),"pIC50 [8, 21]",pIC50 ([8]; read-out: AChE IC50),Binding Ki / Enzyme IC50 (GPCR [9]),Binding Ki / Enzyme IC50 (GPCR [10]),Binding Ki / Enzyme IC50 (Transporter [11]),Binding Ki / Enzyme IC50 (GPCR [12]),Binding Ki / Enzyme IC50 (GPCR [13]),Binding Ki / Enzyme IC50 (Ion channel [14]),IC50 (hERG; [22]),pIC50 (hERG; hERG IC50),Binding Ki / Enzyme IC50 (Enzyme [15]),pIC50 (hERG; [22]),also measured
Cc1cc(Nc2ncc(N3CCN(C)CC3)c(N3CCCC3)n2)ccn1 [compound 2],13 µM,4.735 µM,> 100 µM,3.64 µM,6.22,5.51,5.84,> 100 µM,> 100 µM,6.75,6.80,> 100 µM,> 100 µM,31.45 µM,8.42 µM,30.45 µM,> 100 µM,85.02 µM,4.07,> 100 µM,,Selectivity ratio for α1A (IC50 / blood Cmin at ED90 in the Pf/SCID model) (α1A adrenoceptor): < 1; Selectivity ratio for AChE (IC50 / blood Cmin at ED90 in the Pf/SCID model) [8]: < 1; Binding Ki / Enzyme IC50 (Transporter [16]): 17.1 µM; Binding Ki / Enzyme IC50 (Enzyme [17]): > 100 µM; Binding Ki / Enzyme IC50 (GPCR [18]): 2.695 µM; fraction unbound [19]: 0.402; Binding Ki / Enzyme IC50 (GPCR 9): > 100 µM; Binding Ki / Enzyme IC50 (Enzyme [20]): > 100 µM
"Cc1nc(Nc2ncc(N3CCN(C)[C@H](C)C3)c(Nc3cc(C)n(C)n3)n2)cc(C2CC2)c1F [compound 12, (R)-N2-(4-cyclopropyl-5-fluoro-6-methylpyridin-2-yl)-N4-(1,5-dimethyl-1H-pyrazol-3-yl)-5-(3,4-dimethylpiperazin-1-yl)pyrimidine-2,4-diamine]",11.6 µM,> 100 µM,2.21 µM,8.58 µM,8.05,5.92,6.22,4.29 µM,> 100 µM,4.11,< 4.12,> 100 µM,> 100 µM,10.1 µM,> 100 µM,10.9 µM,> 100 µM,,4.48,14.5 µM,4.45,"improvement in Pf potency ([5]; compound 12 versus compound 2): > 60 fold; selectivity against AChE ([8]; relative to Pf potency): > 1,000 fold; selectivity ratio (hERG; human, CHO cells that express hERG, relative to Pf potency, read-out: selectivity against hERG): > 1000; Binding Ki / Enzyme IC50 (Transporter [16]): 3.85 µM; Binding Ki / Enzyme IC50 (Enzyme [17]): > 100 µM; Binding Ki / Enzyme IC50 (GPCR [18]): 7.82 µM; Plasma protein binding (% free) ([19]; Human): 2.5 % free; Protein binding (human free) ([19]; Human): 2.5%; reduction in free fraction ([19]; compound 12 versus compound 2): 10 fold; fraction unbound [19]: 0.025; Binding Ki / Enzyme IC50 (GPCR 9): > 100 µM; Binding Ki / Enzyme IC50 (Enzyme [20]): > 100 µM"

# From article PMC4389225, “Triaminopyrimidine is a fast-killing and long-acting antimalarial clinical candidate” (Nature Communications, 2015)
